Source: patent US9150530B2, “Esters of 4, 9-dihydroxy-naphtho [2, 3-b] furans for disease therapies” (Zhoushan Haizhongzhou Xinsheng Pharmaceuticals Co., Ltd., priority 2011, dated 2015)

Test: Metabolism in biological fluid (human whole blood, cancer cell lysate, liver microsomes, mouse oral uptake), HPLC
Format: in vitro ADME
Details: liver microsomes or mouse oral uptake system, 20 μM, 37° C.
Protocol: Second, a major metabolite found after incubation of compound I, III, IV, VI or XIII in biological fluid, such as human whole blood, or cancer cell lysate, or liver microsomes, or mouse oral uptake system, is compound XII (FIG. 3). Similarly, a major metabolite found after incubation of compound V, VII or XIV in biological fluid is 2-(1-hydroxy-n-propyl)-naphtho[2,3-b]furan-4,9-dione (data not shown). Reduction of the position 2 substituent carbonyl group is part of quinone redox reaction as evidenced by the β-lapachone effect on the formation of compound XII in the compound XIII incubation mixture of human whole blood (part D of FIG. 3). The possible reaction mechanism is proposed as shown in scheme 7, in which the two electron reduction could be NQ01 catalyzed reduction or two successive cytochrome b5 reductase or p450 reductase catalyzed reaction. As substrate of these enzymes, β-lapachone could compete for the two electron or single electron reaction and thus reduced formation of the metabolism product.
Crystalline or amorphous solid of compound was mixed with excipient and suspended in 0.5% carboxymethylcellulose (CMC) solution in a mortar. Then the mixture was orally administered into ICR mouse at the predetermined dosage. At the predetermined time point, blood was drawn from the mouse and stored in the vial containing heparin. The blood samples were centrifuged at 6,000 rpm for 10 min, and plasmas were separated. To each plasma sample, 9 times volume of acetonitrile/methyl trifluoromethanesulfonate (1000:1) or acetonitrile/concentrated HCl (1000:1) was added. The resulting mixtures were vortexed and incubated in dry ice for 30 minutes or in −20° C. freezer for 3 hours, then centrifuged, and supernatants were separated for HPLC analysis using gradient B.
The biological systems for in vitro metabolism study include: human whole blood stabilized with sodium citrate; cancer cell lysate (obtained using freeze-thaw method, 10 mg/ml in protein concentration for use); liver microsomes with NADPH generation system (prepared according to the protocol provided by iPhase Pharma, Beijing, China);
10 mM of a compound of formula I or its analog or compound XIII in DMSO (however, compound VI was in DMF) was added into the biological system to a final concentration of 20 μM. The mixtures were incubated at 37° C. for predetermined time. To each sample, then 9 times volume of acetonitrile was added. The resulting mixtures were vortexed and incubated in dry ice for 30 minutes or in −20° C. freezer for 3 hours, then centrifuged, and supernatants were separated for HPLC analysis using gradient B.

For `CC(=O)Oc1c2ccccc2c(OC(=O)CNC(=O)OC(C)(C)C)c2oc(C(C)=O)cc12` [compound IV, 2-acetyl-4-acetoxy-9-[(tert-butoxycarbonyl)amino]acetoxy-naphtho[2,3-b]furan], the “Major metabolite found after incubation in biological fluid” value was “compound XII”.
